# Measured values taken from patent US12162861B2, “Dopamine D3 receptor selective antagonists/partial agonists; method of making; and use thereof” (THE UNITED STATES OF AMERICA, AS REPRESENTED BY THE …, priority 2016, dated 2024).
# Entries after “also recorded” stand apart in the source; their conditions may differ.
# Columns and labels:
# [1] = target: T1, human D2R (Homo sapiens, UniProt P14416); experiment: Radioligand competition binding, [3H]N-methylspiperone, D2R; conditions: Table 1A; HEK 293 cells transfected with hD2LR, [3H]N-methylspiperone; read-out: D2R K ± SEM
# T1 construct: expressed in transfected cells; host or cells: HEK293
# T1 sequence (P14416 whole entry): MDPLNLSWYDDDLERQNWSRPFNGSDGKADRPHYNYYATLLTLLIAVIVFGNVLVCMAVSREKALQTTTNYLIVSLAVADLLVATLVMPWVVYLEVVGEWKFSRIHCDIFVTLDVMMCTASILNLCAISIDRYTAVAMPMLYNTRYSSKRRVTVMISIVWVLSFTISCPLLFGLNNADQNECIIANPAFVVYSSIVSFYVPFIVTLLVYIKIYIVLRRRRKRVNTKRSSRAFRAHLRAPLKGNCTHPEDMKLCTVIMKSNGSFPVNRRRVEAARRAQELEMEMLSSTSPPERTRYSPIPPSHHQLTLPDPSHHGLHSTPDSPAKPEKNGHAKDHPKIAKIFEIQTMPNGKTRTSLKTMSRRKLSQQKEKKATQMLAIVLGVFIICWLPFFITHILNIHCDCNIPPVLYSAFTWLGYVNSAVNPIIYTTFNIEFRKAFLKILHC
# Procedure: Binding at dopamine D2-like receptors was determined using previously described methods. (Chen et al. “Tranylcypromine substituted cis-hydroxycyclobutylnaphthamides as potent and selective dopamine D(3) receptor antagonists.” J. Med. Chem. 2014, 57, 4962-4968) Membranes were prepared from HEK293 cells expressing human D2R, D3R or D4R, grown in a 50:50 mix of DMEM and Ham's F12 culture media, supplemented with 20 mM HEPES, 2 mM L-glutamine, 0.1 mM non-essential amino acids, 1× antibiotic/antimycotic, 10% heat-inactivated fetal bovine serum, and 200 μg/mL hygromycin (Life Technologies, Grand Island, NY) and kept in an incubator at 37° C. and 5% CO2. Upon reaching 80-90% confluence, cells were harvested using pre-mixed Earle's Balanced Salt Solution (EBSS) with 5 μM EDTA (Life Technologies) and centrifuged at 3000 rpm for 10 min at 21° C. The supernatant was removed and the pellet was resuspended in 10 mL hypotonic lysis buffer (5 mM MgCl2·6H2O, 5 mM Tris, pH 7.4 at 4° C.) and centrifuged at 20,000 rpm for 30 min at 4° C. The pellet was then resuspended in fresh EBSS buffer made from 8.7 g/L Earle's Balanced Salts without phenol red (US Biological, Salem, MA), 2.2 g/L sodium bicarbonate, pH to 7.4. A Bradford protein assay (Bio-Rad, Hercules, CA) was used to determine the protein concentration and membranes were diluted to 500 μg/mL and stored in a −80° C. freezer for later use.
# Radioligand competition binding experiments were conducted using thawed membranes. Test compounds were freshly dissolved in 30% DMSO and 70% H2O to a stock concentration of 100 μM. To assist the solubilization of free-base compounds, 10 μl of glacial acetic acid was added along with the DMSO. Each test compound was then diluted into 13 half-log serial dilutions using 30% DMSO vehicle; final test concentrations ranged from 10 μM to 10 pM. Previously frozen membranes were diluted in fresh EBSS to a 100 μg/mL (for hD2R or hD3R) or 200 μg/mL (hD4R) stock for binding. Radioligand competition experiments were conducted in glass tubes containing 300 μl fresh EBSS buffer with 0.2 mM sodium metabisulfite, 50 μl of diluted test compound, 100 μl of membranes (10 μg total protein for hD2R or hD3R, 20 μg total protein for hD4R), and 50 μl of [^3H]N-methylspiperone (0.4 nM final concentration; Perkin Elmer). Nonspecific binding was determined using 10 μM butaclamol (Sigma-Aldrich, St. Louis, MO) and total binding was determined with 30% DMSO vehicle. All compound dilutions were tested in triplicate and the reaction incubated for one hour at room temperature. The reaction was terminated by filtration through Whatman GF/B filters, presoaked for one hour in 0.5% polyethylenimine, using a Brandel R48 filtering manifold (Brandel Instruments, Gaithersburg, MD). The filters were washed 3 times with 3 mL of ice cold EBSS buffer and transferred to scintillation vials. 3 mL CytoScint liquid scintillation cocktail (MP Biomedicals, Solon, OH) was added and vials were counted using a Perkin Elmer Tri-Carb 2910 TR liquid scintillation counter (Waltham, MA). IC50 values for each compound were determined from dose-response curves and Ki values were calculated using the Cheng-Prusoff equation; these analyses were performed using GraphPad Prism version 5.00 for Windows (GraphPad Software, San Diego, CA). Reported Ki values were determined from least three independent experiments.
# [2] = Phase I metabolic stability in rat liver microsomes; type: in vitro ADME; conditions: FIG. 2; 10 μM, 0.5 mg/mL microsomes
# Procedure: Methods: Phase I metabolic stability assay was conducted in rat and rhesus monkey liver microsomes. For phase I metabolism, the reaction was carried out with 100 mM potassium phosphate buffer, pH 7.4, in the presence of NADPH regenerating system (1.3 mM NADPH, 3.3 mM glucose 6-phosphate, 3.3 mM MgCl2, 0.4 U/mL glucose-6-phosphate dehydrogenase, 50 μM sodium citrate). Reactions in triplicate were initiated by addition of the liver microsomes to the incubation mixture (compound final concentration was 10 μM; 0.5 mg/mL microsomes). Negative controls in the absence of cofactors were carried out to determine the specific cofactor-free degradation. Compound disappearance was monitored via LC/MS/MS. Chromatographic analysis was performed using an Accela™ ultra high-performance system consisting of an analytical pump, and an autosampler coupled with TSQ Vantage mass spectrometer (Thermo Fisher Scientific Inc., Waltham MA). […] The mobile phase used was composed of 0.1% Formic Acid in Acetonitrile and 0.1% Formic Acid in H2O with gradient elution, starting with 10% (organic) linearly increasing to 99% up to 2 min, maintaining at 99% (2-2.5 min) and re-equilibrating to 10% by 2.7 min. The total run time for each analyte was 5.0 min.
# [3] = target: opiate delta receptor (Homo sapiens, UniProt P41143); experiment: Binding to opiate delta receptor
# opiate delta receptor, sequence (P41143 whole entry): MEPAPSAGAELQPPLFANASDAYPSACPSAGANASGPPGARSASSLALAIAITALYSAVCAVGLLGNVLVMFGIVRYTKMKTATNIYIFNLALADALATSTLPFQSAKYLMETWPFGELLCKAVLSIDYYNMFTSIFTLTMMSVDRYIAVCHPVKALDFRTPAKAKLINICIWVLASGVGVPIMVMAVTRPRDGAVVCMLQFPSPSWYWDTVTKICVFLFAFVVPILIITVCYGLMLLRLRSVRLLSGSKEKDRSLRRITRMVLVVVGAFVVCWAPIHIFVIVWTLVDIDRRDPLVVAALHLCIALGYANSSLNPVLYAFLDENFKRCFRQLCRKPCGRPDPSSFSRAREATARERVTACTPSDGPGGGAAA
# [4] = target: cannabinoid CB1 receptor (Homo sapiens, UniProt P21554); experiment: Binding to cannabinoid CB1 receptor
# cannabinoid CB1 receptor, sequence (P21554 whole entry): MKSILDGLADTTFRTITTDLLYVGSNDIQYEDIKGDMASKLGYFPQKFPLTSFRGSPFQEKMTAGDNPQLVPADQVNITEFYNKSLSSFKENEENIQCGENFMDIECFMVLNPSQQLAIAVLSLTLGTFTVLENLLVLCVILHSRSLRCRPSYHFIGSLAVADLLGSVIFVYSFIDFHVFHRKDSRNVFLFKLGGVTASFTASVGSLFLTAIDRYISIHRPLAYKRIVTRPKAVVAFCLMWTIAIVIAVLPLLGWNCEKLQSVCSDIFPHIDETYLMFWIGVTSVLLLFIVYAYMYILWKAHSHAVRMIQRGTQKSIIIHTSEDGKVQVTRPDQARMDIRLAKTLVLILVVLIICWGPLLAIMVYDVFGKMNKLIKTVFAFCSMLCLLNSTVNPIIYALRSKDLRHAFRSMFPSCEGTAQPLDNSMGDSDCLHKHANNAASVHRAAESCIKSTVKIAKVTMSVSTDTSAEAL
# [5] = target: cannabinoid CB2 receptor (Homo sapiens, UniProt P34972); experiment: Binding to cannabinoid CB2 receptor
# cannabinoid CB2 receptor, sequence (P34972 whole entry): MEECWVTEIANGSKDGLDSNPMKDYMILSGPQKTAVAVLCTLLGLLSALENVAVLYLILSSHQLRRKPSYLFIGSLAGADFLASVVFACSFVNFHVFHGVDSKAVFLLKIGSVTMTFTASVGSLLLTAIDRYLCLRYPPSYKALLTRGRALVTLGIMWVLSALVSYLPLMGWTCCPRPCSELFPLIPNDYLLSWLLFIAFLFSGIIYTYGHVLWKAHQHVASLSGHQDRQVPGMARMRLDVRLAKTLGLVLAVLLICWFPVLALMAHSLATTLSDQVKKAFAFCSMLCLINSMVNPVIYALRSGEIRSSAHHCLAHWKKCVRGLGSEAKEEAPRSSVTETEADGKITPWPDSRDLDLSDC
# [6] = system: Long-Evans rats; experiment: Oxycodone-induced conditioned place preference (CPP) in rats; type: in vivo, rat
# Procedure: CPP was tested in the place-conditioning apparatus (Med Associates, St Albans, VT) consisting of two side compartments (21×28 cm^2) and a central gray connecting area (21×12.5 cm^2); a sliding door separated each compartment from the connecting area. The two side compartments differed in wall color (black vs white), floor type (net vs grid), and illumination. Each rat was first exposed in the CPP apparatus for 15 minutes (preconditioning) and then followed by oxycodone CPP conditioning. […] Oxycodone CPP procedures consisted of 2 days of oxycodone (3 mg/kg, ip) conditioning in one compartment and 2 days of saline conditioning in another compartment, alternatively (e.g., oxycodone-saline-oxycodone-saline). The compartments paired with oxycodone or saline were counterbalanced. […] After oxycodone injection, animals were immediately confined in the assigned compartments for 40 minutes. To potentiate oxycodone CPP formation, animals received 4 days of oxycodone (3 mg/kg, ip, twice daily at 8:00 and 18:00) treatment at home cages. […] In the (Vehicle+vehicle) group, saline was paired with each compartment. Then 24 hours after the last saline or oxycodone conditioning injection, animals were placed in the same three-chamber CPP apparatus for 15 minutes and the time spent in each compartment was recorded. The CPP score was calculated by the time difference (seconds) that animal spent in drug-paired compartment versus saline-paired compartment.
structure (smiles),measurement,setting,value
"CCc1cc(Cl)c(OC)c(N2CCN(CC(O)CCNC(=O)c3cc4ccccc4[nH]3)CC2)c1 (racemic) [Compound 29, N-(4-(4-(3-chloro-5-ethyl-2-methoxyphenyl)piperazin-1-yl)-3-hydroxybutyl)-1H-indole-2-carboxamide]",Ki,[1],17.1 ± 5.09 µM
same,metabolic stability in rat liver microsomes versus PG648,[2],improved metabolic stability as compared to Compound 1; also recorded: significantly more stable than PG648
same,binding to opiate delta receptor,[3],does not bind
same,binding to cannabinoid CB1 receptor,[4],does not bind
same,binding to cannabinoid CB2 receptor,[5],does not bind
same,CPP produced by compound alone,"[6]; rats, 15 mg/kg alone",did not produce CPP
same,"oxycodone induced CPP, posthoc comparison to (Vehicle+oxycodone) group","[6]; rats, 15 mg/kg, p<0.05",significant reduction in oxycodone induced CPP
same,oxycodone-induced CPP,"[6]; rats, 5, 15 mg/kg ip, 15 min before each oxycodone injection (3 mg/kg ip), FIG. 10",dose-dependently attenuated oxycodone-induced CPP
